From US20120134977A1 (YEDA RESEARCH AND DEVELOPMENT CO. LTD., priority 2009, published 2012)

Key:
[1] = target: human serum albumin (HSA) (Homo sapiens, UniProt P02768); test: Isothermal scanning calorimetry (ITC) of ligand association with HSA; assay type: binding; conditions: for Kd: ligand 400 μM injected into HSA 10 μM, PBS pH 7.4, 23° C., read-out: Association-constant to HSA K (Ka) (converted)
Experimental: The data was obtained for 15 automatic injections each of 2.7 The total duration of the experiments was 45 min (2A). […] Sample cell contained HSA at a concentration of 10 μM. Both components were dissolved in PBS-buffer pH=7.4. The experiment was conducted at 23° C.
(iv) Isothermal scanning calorimetry measurements were performed with iTC200 microcalorimeter (MicroCal LLC, Nothampton Mass., USA), according to the manufacturer's instructions.

[2] = system: E. Coli; conditions: previously disclosed (Shechter et al., 2002; Marcus et al., 2008); read-out: IC50, inhibition of E. Coli replication; cited from earlier work
[3] = target: HSA (Homo sapiens, UniProt P02768); conditions: immobilized HSA binding strategy, Markusen et al., 1996; cited from earlier work
[4] = background statement; cited from earlier work
[5] = system: CD1-mice; conditions: at any dosage, previously described; cited from earlier work

Chain of human serum albumin (HSA) (P02768 25-609): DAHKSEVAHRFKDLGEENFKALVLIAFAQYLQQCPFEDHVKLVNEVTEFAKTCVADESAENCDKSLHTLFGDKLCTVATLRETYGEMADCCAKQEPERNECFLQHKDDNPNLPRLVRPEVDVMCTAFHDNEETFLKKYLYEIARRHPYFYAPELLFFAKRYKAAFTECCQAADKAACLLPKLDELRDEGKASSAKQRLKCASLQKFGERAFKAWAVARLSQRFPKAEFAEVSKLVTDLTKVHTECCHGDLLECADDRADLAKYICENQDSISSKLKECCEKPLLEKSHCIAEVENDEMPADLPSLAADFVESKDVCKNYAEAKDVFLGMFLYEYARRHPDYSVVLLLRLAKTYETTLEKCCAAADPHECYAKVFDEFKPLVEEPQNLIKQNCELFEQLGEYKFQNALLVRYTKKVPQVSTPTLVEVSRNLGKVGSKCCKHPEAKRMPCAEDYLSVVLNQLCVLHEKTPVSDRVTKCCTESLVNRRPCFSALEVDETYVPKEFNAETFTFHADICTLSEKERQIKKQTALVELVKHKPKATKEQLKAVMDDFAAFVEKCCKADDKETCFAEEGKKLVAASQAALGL
Chain of HSA (P02768 25-609): as above

O=C(O)CCCCCCCCCCSC1CC(=O)NC1=O (stereo not shown)
Kd [1]: 7.69 µM

O=C(O)CNC(=O)OCC1c2cc(NC(=O)CCN3C(=O)C=CC3=O)ccc2-c2ccc(S(=O)(=O)O)cc21 (stereo not shown) [Glycine-FMS-MAL, 2-(((2-(3-(2,5-dioxo-2,5-dihydro-1H-pyrrol-1-yl)propanamido)-7-sulfo-9H-fluoren-9-yl)methoxy)carbonylamino)acetic acid]
Kd [1]: 7.14 µM

O=C(O)CCCCCCCCCCCCCCCSC1CC(=O)NC1=O (stereo not shown) [MAL-S—(CH2)15—COOH, 16-(2,5-dioxopyrrolidin-3-ylthio)hexadecanoic acid]
Kd [1]: 6.45 µM

Gentamicin
IC50 [2]: 2.1 ± 0.2 µM

N^εB29-tetradecanoyl des(B30) insulin [insulin-detemir]
N (binding sites, OneSites model) ([1]; PBS pH 7.4): 0.693±0.0430 sites | ΔH of binding to HSA ([1]; PBS pH 7.4): -4.575 ± 0.4067 kcal/mol | ΔS of binding to HSA ([1]; PBS pH 7.4): 6.79 (cal/mol)/deg | Ka, binding affinity to HSA [3]: 2.4±0.7×10^5 M^−1 | duration of action [4]: up to 24 hours

exendin-4
threshold decrease of circulating blood glucose level [5]: 27±3%
